In the NIST ThermoML archive (doi:10.1021/je7003758):

Assay: xn = mol fraction of the nth substance listed
Conditions: 298.15 K, Liquid

ClCCCCCl [1,4-dichlorobutane] + CN1CCCC1=O
mass density [kg/m3]
Conditions	x2 = 0.1039	x2 = 0.2034	x2 = 0.3036	x2 = 0.402	x2 = 0.5025	x2 = 0.5968	x2 = 0.7003	x2 = 0.8008	x2 = 0.8971
100 kPa	1123.8	1114.2	1104.3	1094.4	1084	1073.9	1062.7	1051.4	1040.2
500 kPa	1124.1	1114.6	1104.6	1094.7	1084.2	1074.2	1062.9	1051.6	1040.4
1000 kPa	1124.5	1114.9	1104.9	1095	1084.5	1074.5	1063.2	1051.9	1040.7
1500 kPa	1124.9	1115.2	1105.3	1095.3	1084.8	1074.8	1063.6	1052.2	1041
2000 kPa	1125.2	1115.6	1105.7	1095.7	1085.2	1075.1	1063.8	1052.5	1041.3
2500 kPa	1125.5	1115.9	1106	1096	1085.5	1075.4	1064.1	1052.8	1041.6
2900 kPa	–	–	1106.3	–	–	–	–	–	–
3000 kPa	1125.9	1116.3	–	1096.3	1085.8	1075.7	1064.4	1053	1041.8
3500 kPa	1126.3	1116.6	1106.6	1096.7	1086.1	1076	1064.7	1053.4	1042.1
4000 kPa	1126.7	1117	1107	1097	1086.4	1076.4	1065	1053.6	1042.3
4500 kPa	1127	1117.3	1107.4	1097.3	1086.8	1076.6	1065.3	1053.9	1042.7
4900 kPa	1127.3	–	–	–	–	1076.9	–	–	–
5000 kPa	–	1117.7	1107.7	1097.6	1087.1	–	1065.6	1054.2	1042.9
5500 kPa	1127.7	1118	1108	1098	1087.4	1077.2	1065.9	1054.4	1043.1
5900 kPa	1128.1	–	–	–	1087.7	–	–	–	–
6000 kPa	–	1118.4	1108.3	1098.3	–	1077.6	1066.2	1054.8	1043.5
6500 kPa	1128.4	1118.8	1108.7	1098.6	1088	1077.8	1066.5	1055	1043.7
7000 kPa	1128.8	1119.1	1109	1099	1088.4	1078.2	1066.8	1055.3	1044
7400 kPa	–	–	–	–	–	–	–	–	1044.2
7500 kPa	–	1119.5	1109.4	1099.3	1088.6	1078.5	1067.1	1055.6	–
7600 kPa	1129.2	–	–	–	–	–	–	–	–
7900 kPa	–	–	–	–	1089	–	–	–	–
8000 kPa	1129.5	1119.8	1109.7	1099.6	–	1078.8	1067.4	1055.9	1044.5
8400 kPa	1129.8	–	–	–	–	–	–	–	–
8500 kPa	–	1120.1	1110.1	1099.9	1089.3	1079.1	1067.6	1056.2	1044.8
8900 kPa	1130.2	–	–	–	–	–	–	–	–
9000 kPa	–	1120.5	1110.4	1100.3	1089.6	1079.4	1068	1056.4	1045.1
9400 kPa	–	–	–	–	–	–	–	–	1045.3
9500 kPa	1130.6	1120.8	1110.7	1100.3	1089.9	1079.7	1068.2	1056.7	–
10000 kPa	1131	1121.3	1111.1	1101	1090.3	1080	1068.6	1057.1	1045.6
10500 kPa	1131.4	1121.6	1111.4	1101.3	1090.6	1080.3	1068.9	1057.3	1045.9
11000 kPa	1131.7	1122	1111.8	1101.6	1090.9	1080.6	1069.2	1057.6	1046.1
11500 kPa	1132.1	1122.3	1112.1	1101.9	1091.2	1080.9	1069.4	1057.9	1046.4
11900 kPa	–	–	–	–	–	–	–	–	1046.6
12000 kPa	1132.5	1122.6	1112.4	1102.2	1091.6	1081.2	1069.7	1058.2	–
12400 kPa	–	–	–	–	–	–	–	–	1046.9
12500 kPa	1132.8	1122.9	1112.8	1102.6	1091.9	1081.5	1070	1058.4	–
12900 kPa	–	–	–	–	1092.2	–	–	–	–
13000 kPa	1133.1	1123.3	1113.1	1102.9	–	1081.8	1070.3	1058.7	1047.2
13400 kPa	–	–	–	–	–	–	–	1059	–
13500 kPa	1133.5	1123.6	1113.4	1103.2	1092.5	1082.1	1070.5	–	1047.4
13900 kPa	–	–	1113.7	–	–	–	–	–	–
14000 kPa	1133.8	1124	–	1103.5	1092.8	1082.4	1070.9	1059.2	1047.7
14400 kPa	–	–	–	–	–	–	1071.1	1059.5	–
14500 kPa	1134.2	1124.3	1114	1103.8	1093.1	1082.6	–	–	1048
14900 kPa	–	–	–	–	1093.3	–	–	–	–
15000 kPa	1134.5	1124.7	1114.4	1104.1	–	1083	1071.5	1059.7	1048.3
15400 kPa	–	–	–	–	1093.6	–	–	–	–
15500 kPa	1134.8	1125	1114.7	1104.4	–	1083.3	1071.7	1060	1048.6
15900 kPa	–	–	–	–	–	–	–	–	1048.8
16000 kPa	1135.2	1125.3	1115.1	1104.8	1094	1083.5	1072	1060.3	–
16400 kPa	–	–	–	1105	–	–	–	–	–
16500 kPa	1135.5	1125.6	1115.4	–	1094.2	1083.8	1072.2	1060.6	1049
16900 kPa	–	–	1115.6	–	–	–	–	–	–
17000 kPa	1135.9	1126	–	1105.4	1094.5	1084.1	1072.5	1060.8	1049.3
17500 kPa	1136.2	1126.3	1116	1105.7	1094.8	1084.4	1072.8	1061.1	1049.5
18000 kPa	1136.5	1126.6	1116.3	1106	1095.1	1084.7	1073.1	1061.3	1049.8
18500 kPa	1136.9	1126.9	1116.6	1106.2	1095.4	1085	1073.3	1061.6	1050.1
19000 kPa	1137.3	1127.3	1117	1106.6	1095.8	1085.3	1073.7	1061.9	1050.3
19500 kPa	1137.6	1127.6	1117.3	1106.9	1096	1085.6	1074	1062.2	1050.6
20000 kPa	1138	1128	1117.7	1107.4	1096.5	1086	1074.5	1062.4	1050.9
